As a reminder, the IC50 is the concentration needed to halve the response being measured.

The assay relates to KRAS G12V dependent lung adenocarcinoma cell line, NCI-H441. Kind of assay: Cellular pERK (Thr202/Tyr204) FRET/HTRF assay. Format: cell-based. As to conditions: Homo sapiens. The method, boiled down: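 NCI-H441 cells (KRAS G12V) were seeded and grown overnight at 37 °C, 5% CO2, then treated with compound in DMSO for 1 hr. Lysates were probed with a Eu3+-cryptate/d2 antibody sandwich against pERK1/2 Thr202/Tyr204 and read by HTRF at 665 nm; IC50 from curve fitting.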
For orientation: Time-resolved FRET reads energy transfer from a long-lived donor to a nearby acceptor.

Setting [1] is: NCI-H441, pERK HTRF, NCI-H441 cells (KRAS G12V).

Under setting [1], `[2H]C([2H])(Oc1nc(N2CCCC[C@H]3[C@H](F)[C@H]32)c2cnc(-c3cccc4ccc(F)c(OCF)c34)c(F)c2n1)[C@@]12CCCN1C[C@H](F)C2` [Example 73, 8-Fluoro-7-(7-fluoro-8-(fluoromethoxy)naphthalen-1-yl)-4-((1S,7R,8S)-8-fluoro-2-azabicyclo[5.1.0]octan-2-yl)-2-(((2R,7aS)-2-fluorotetrahydro-1H-pyrrolizin-7a(5H)-yl)methoxy-d2)pyrido[4,3-d]pyrimidine] returned an IC50 of less than 50 nM.

`[2H]C([2H])([2H])Oc1c(F)c(F)cc2cc(N)cc(-c3ncc4c(N5CCCO[C@H]6[C@H](F)[C@H]65)nc(OC([2H])([2H])[C@@]56CCCN5C[C@H](F)C6)nc4c3F)c12` [Example 74, 6,7-Difluoro-4-(8-fluoro-4-((1R,7S,8R)-8-fluoro-2-oxa-6-azabicyclo[5.1.0]octan-6-yl)-2-(((2R,7aS)-2-fluorotetrahydro-1H-pyrrolizin-7a(5H)-yl)methoxy-d2)pyrido[4,3-d]pyrimidin-7-yl)-5-(methoxy-d3)naphthalen-2-amine] gave an IC50 under setting [1] of less than 50 nM.

Consider `[2H]C([2H])(Oc1nc(N2CCCO[C@H]3[C@H](F)[C@H]32)c2cnc(-c3cccc4ccc(F)c(C#C)c34)c(F)c2n1)[C@@]12CCCN1C[C@H](F)C2` [Example 75, (1R,7S,8R)-6-(7-(8-Ethynyl-7-fluoronaphthalen-1-yl)-8-fluoro-2-(((2R,7aS)-2-fluorotetrahydro-1H-pyrrolizin-7a(5H)-yl)methoxy-d2)pyrido[4,3-d]pyrimidin-4-yl)-8-fluoro-2-oxa-6-azabicyclo[5.1.0]octane], for which the IC50 under setting [1] is less than 50 nM.

On to `[2H]C([2H])(Oc1nc(N2CCCO[C@H]3[C@H](F)[C@H]32)c2cnc(-c3cccc4cc(F)c(F)c(C#C)c34)c(F)c2n1)[C@@]12CCCN1C[C@H](F)C2` [Example 76, (1R,7S,8R)-6-(7-(8-Ethynyl-6,7-difluoronaphthalen-1-yl)-8-fluoro-2-(((2R,7aS)-2-fluorotetrahydro-1H-pyrrolizin-7a(5H)-yl)methoxy-d2)pyrido[4,3-d]pyrimidin-4-yl)-8-fluoro-2-oxa-6-azabicyclo[5.1.0]octane], for which, under setting [1], the IC50 is less than 50 nM.

`[2H]C([2H])([2H])Oc1c(F)c(F)c(F)c2cc(N)cc(-c3ncc4c(N5CCCO[C@H]6[C@H](F)[C@H]65)nc(OC([2H])([2H])[C@@]56CCCN5C[C@H](F)C6)nc4c3F)c12` [Example 77, 6,7,8-Trifluoro-4-(8-fluoro-4-((1R,7S,8R)-8-fluoro-2-oxa-6-azabicyclo[5.1.0]octan-6-yl)-2-(((2R,7aS)-2-fluorotetrahydro-1H-pyrrolizin-7a(5H)-yl)methoxy-d2)pyrido[4,3-d]pyrimidin-7-yl)-5-(methoxy-d3)naphthalen-2-amine] yielded an IC50 under setting [1] of less than 50 nM.

Regarding `[2H]C([2H])(Oc1nc(N2CCCC[C@H]3[C@H](F)[C@H]32)c2cnc(-c3cccc4ccc(F)c(C#C)c34)c(F)c2n1)[C@@]12CCCN1C[C@H](F)C2` [Example 78, 7-(8-Ethynyl-7-fluoronaphthalen-1-yl)-8-fluoro-4-((1S,7R,8S)-8-fluoro-2-azabicyclo[5.1.0]octan-2-yl)-2-(((2R,7aS)-2-fluorotetrahydro-1H-pyrrolizin-7a(5H)-yl)methoxy-d2)pyrido[4,3-d]pyrimidine], the IC50 under setting [1] was less than 50 nM.

As for `[2H]C([2H])(Oc1nc(N2CCCC[C@H]3[C@H](F)[C@H]32)c2cnc(-c3cccc4cc(F)c(F)c(C#C)c34)c(F)c2n1)[C@@]12CCCN1C[C@H](F)C2` [Example 79, 7-(8-Ethynyl-6,7-difluoronaphthalen-1-yl)-8-fluoro-4-((1S,7R,8S)-8-fluoro-2-azabicyclo[5.1.0]octan-2-yl)-2-(((2R,7aS)-2-fluorotetrahydro-1H-pyrrolizin-7a(5H)-yl)methoxy-d2)pyrido[4,3-d]pyrimidine], under setting [1], the half-inhibitory concentration (IC50) was less than 50 nM.

With `[2H]C([2H])(F)Oc1c(F)ccc2cccc(-c3ncc4c(N5CCOC[C@H]6[C@H](F)[C@H]65)nc(OC([2H])([2H])[C@@]56CCCN5C[C@H](F)C6)nc4c3F)c12` [Example 80, (1S,7S,8S)-8-Fluoro-2-(8-fluoro-7-(7-fluoro-8-(fluoromethoxy-d2)naphthalen-1-yl)-2-(((2R,7aS)-2-fluorotetrahydro-1H-pyrrolizin-7a(5H)-yl)methoxy-d2)pyrido[4,3-d]pyrimidin-4-yl)-5-oxa-2-azabicyclo[5.1.0]octane], the IC50 under setting [1] was less than 50 nM.

Consider `[2H]C([2H])([2H])Oc1c(C#N)ccc2cc(N)cc(-c3ncc4c(N5CCOC[C@H]6[C@H](F)[C@H]65)nc(OC([2H])([2H])[C@@]56CCCN5C[C@H](F)C6)nc4c3F)c12` [Example 81, 6-Amino-8-(8-fluoro-4-((1S,7S,8S)-8-fluoro-5-oxa-2-azabicyclo[5.1.0]octan-2-yl)-2-(((2R,7aS)-2-fluorotetrahydro-1H-pyrrolizin-7a(5H)-yl)methoxy-d2)pyrido[4,3-d]pyrimidin-7-yl)-1-(methoxy-d3)-2-naphthonitrile], for which, under setting [1], the IC50 was less than 50 nM.

As to `[2H]C([2H])(Oc1nc(N2CCCC[C@H]3[C@H](F)[C@H]32)c2cnc(-c3cncc4cc(F)c(F)c(OC)c34)c(F)c2n1)[C@@]12CCCN1C[C@H](F)C2` [Example 83, 7-(6,7-Difluoro-5-methoxyisoquinolin-4-yl)-8-fluoro-4-((1S,7R,8S)-8-fluoro-2-azabicyclo[5.1.0]octan-2-yl)-2-(((2R,7aS)-2-fluorotetrahydro-1H-pyrrolizin-7a(5H)-yl)methoxy-d2)pyrido[4,3-d]pyrimidine], the IC50 under setting [1] lay within 50 to 500 nM.

`[2H]C([2H])([2H])Oc1c(F)ccc2cncc(-c3ncc4c(N5CCOC[C@H]6[C@H](F)[C@H]65)nc(OC([2H])([2H])[C@@]56CCCN5C[C@H](F)C6)nc4c3F)c12` [Example 84, (1S,7S,8S)-8-Fluoro-2-(8-fluoro-7-(6-fluoro-5-(methoxy-d3)isoquinolin-4-yl)-2-(((2R,7aS)-2-fluorotetrahydro-1H-pyrrolizin-7a(5H)-yl)methoxy-d2)pyrido[4,3-d]pyrimidin-4-yl)-5-oxa-2-azabicyclo[5.1.0]octane] had an IC50 (pERK HTRF, NCI-H441 cells (KRAS G12V)) of less than 50 nM.

`[2H]C([2H])(Oc1nc(N2CCCC[C@H]3[C@H](F)[C@H]32)c2cnc(-c3cncc4ccc(F)c(Cl)c34)c(F)c2n1)[C@@]12CCCN1C[C@H](F)C2` [Example 85, 7-(5-Chloro-6-fluoroisoquinolin-4-yl)-8-fluoro-4-((1S,7R,8S)-8-fluoro-2-azabicyclo[5.1.0]octan-2-yl)-2-(((2R,7aS)-2-fluorotetrahydro-1H-pyrrolizin-7a(5H)-yl)methoxy-d2)pyrido[4,3-d]pyrimidine] returned an IC50 under setting [1] of 50 to 500 nM.

Under setting [1], `[2H]C([2H])([2H])Oc1c(F)ccc2cccc(-c3ncc4c(N5CCCO[C@H]6[C@H](F)[C@H]65)nc(OC([2H])([2H])[C@@]56CCCN5C[C@H](F)C6)nc4c3F)c12` [Example 86, (1R,7S,8R)-8-Fluoro-6-(8-fluoro-7-(7-fluoro-8-(methoxy-d3)naphthalen-1-yl)-2-(((2R,7aS)-2-fluorotetrahydro-1H-pyrrolizin-7a(5H)-yl)methoxy-d2)pyrido[4,3-d]pyrimidin-4-yl)-2-oxa-6-azabicyclo[5.1.0]octane] registered an IC50 of less than 50 nM.

For `[2H]C([2H])(F)Oc1c(F)c(F)cc2cc(N)cc(-c3ncc4c(N5CCOC[C@H]6[C@H](F)[C@H]65)nc(OC([2H])([2H])[C@@]56CCCN5C[C@H](F)C6)nc4c3F)c12` [Example 88, 6,7-Difluoro-4-(8-fluoro-4-((1S,7S,8S)-8-fluoro-5-oxa-2-azabicyclo[5.1.0]octan-2-yl)-2-(((2R,7aS)-2-fluorotetrahydro-1H-pyrrolizin-7a(5H)-yl)methoxy-d2)pyrido[4,3-d]pyrimidin-7-yl)-5-(fluoromethoxy-d2)naphthalen-2-amine], the IC50 under setting [1] was less than 50 nM.

Compound `[2H]C([2H])(Oc1nc(N2CCCO[C@H]3[C@H](F)[C@H]32)c2cnc(-c3cccc4ccc(F)c(OCF)c34)c(F)c2n1)[C@@]12CCCN1C[C@H](F)C2` [Example 92, (1R,7S,8R)-8-Fluoro-6-(8-fluoro-7-(7-fluoro-8-(fluoromethoxy)naphthalen-1-yl)-2-(((2R,7aS)-2-fluorotetrahydro-1H-pyrrolizin-7a(5H)-yl)methoxy-d2)pyrido[4,3-d]pyrimidin-4-yl)-2-oxa-6-azabicyclo[5.1.0]octane] had an IC50 under setting [1] of less than 50 nM.

Compound `[2H]C([2H])(Oc1nc(N2CCOC[C@H]3[C@H](F)[C@H]32)c2cnc(-c3cc(N)cc4c(F)c(F)c(F)c(C#C)c34)c(F)c2n1)[C@@]12CCCN1C[C@H](F)C2` [Example 93, 5-Ethynyl-6,7,8-trifluoro-4-(8-fluoro-4-((1S,7S,8S)-8-fluoro-5-oxa-2-azabicyclo[5.1.0]octan-2-yl)-2-(((2R,7aS)-2-fluorotetrahydro-1H-pyrrolizin-7a(5H)-yl)methoxy-d2)pyrido[4,3-d]pyrimidin-7-yl)naphthalen-2-amine] gave an IC50 under setting [1] of less than 50 nM.

The compound `[2H]C([2H])(Oc1nc(N2CCC=C[C@H]3[C@H](F)[C@H]32)c2cnc(-c3cc(N)cc4cc(F)c(F)c(C#C)c34)c(F)c2n1)[C@@]12CCCN1C[C@H](F)C2` [Example 94, 5-ethynyl-6,7-difluoro-4-(8-fluoro-4-((1S,7R,8S)-8-fluoro-2-azabicyclo[5.1.0]oct-5-en-2-yl)-2-(((2R,7aS)-2-fluorotetrahydro-1H-pyrrolizin-7a(5H)-yl)methoxy-d2)pyrido[4,3-d]pyrimidin-7-yl)naphthalen-2-amine] displayed an IC50 (NCI-H441, cellular pERK (Thr202/Tyr204) HTRF, NCI-H441 cells) of less than 50 nM.
